Measurements reported in patent US4110328A, “Bis-carbamylguanidinoazaalkane antimicrobial compounds” (Cooper Laboratories, Inc., priority 1976, dated 1978).
≈ marks a conversion by molar mass, not a printed value. Entries after “also recorded” stand apart in the source; their conditions may differ. Where a name gives a salt, the structure may show the parent alone.

Legend:
[1] = system: A. niger; assay: Serial dilution MIC test, A. niger; assay type: cell-based; conditions: Aspergillus niger; trypticase soy broth, 37° C, 36 hours; read-out: MINIMUM INHIBITORY CONCN. A. niger
Experimental: (§1) A quantitative serial dilution test may also be performed by the following procedure.
(§2) A 20 mg/ml solution of the compound to be tested is prepared in a standard brain-heart infusion broth medium which has been diluted with water to one-half standard strength.
(§3) Serial dilutions are prepared by adding 1 ml of the solution to a test tube containing 9 ml of medium. Five milliliters of the resulting solution are then added to another test tube containing 5 ml of the medium. The resulting solution is then again diluted by the same procedure. Ordinarily one tenfold dilution and four twofold dilutions are made. The procedure can be continued if more dilute solutions are required. Each of the series of tubes containing solutions of the compounds to be assayed is inoculated with two drops of a heavy culture of the chosen microorganisms in the brain-heart infusion broth. The tubes are incubated at 37° C for 36 hours and the most dilute solution showing no microbial growth is noted. The concentration of this solution is reported as the minimal inhibitory concentration (MIC).
(§4) A number of compounds of this invention were tested for in vitro antimicrobial activity against several pathogenic microorganisms using the above described procedure except that trypticase soy broth was used in place of half strength brain-heart infusion as the medium.

[2] = system: E. coli; assay: Serial dilution MIC test, E. coli; assay type: cell-based; conditions: Escherichia coli, read-out: MINIMUM […]. E. coli; trypticase soy broth, 37° C, 36 hours; read-out: MINIMUM INHIBITORY CONCN. E. coli
Experimental: as §1, §2, §3, §4

[3] = system: S. aureus; assay: Serial dilution MIC test, S. aureus; assay type: cell-based; conditions: Staphylococcus aureus, read-out: MINIMUM […]. S. aureus; trypticase soy broth, 37° C, 36 hours; read-out: MINIMUM INHIBITORY CONCN. S. aureus
Experimental: as §1, §2, §3, §4

[4] = system: Ps. aeruginosa; assay: Serial dilution MIC test, Ps. aeruginosa; assay type: cell-based; conditions: Pseudomonas aeruginosa; trypticase soy broth, 37° C, 36 hours; read-out: MINIMUM INHIBITORY CONCN. Ps. aeruginosa
Experimental: as §1, §2, §3, §4

[5] = system: C. albicans; assay: Serial dilution MIC test, C. albicans; assay type: cell-based; conditions: Candida albicans; trypticase soy broth, 37° C, 36 hours; read-out: MINIMUM INHIBITORY CONCN. C. albicans
Experimental: as §1, §2, §3, §4

[6] = system: S. Mutans, Strain OMZ-176E; assay: Serial dilution minimum inhibitory concentration (MIC) test, S. mutans; assay type: cell-based; conditions: Streptococcus mutans, half strength brain-heart infusion broth, 37° C, 36 hours
Experimental: as §3, with “A quantitative serial dilution test may also be performed by the following procedure. A 20 mg/ml solution of the compound to be tested is prepared in a standard brain-heart infusion broth medium which has been diluted with water to one-half standard strength. Serial” for “Serial”, “(MIC). The minimum inhibitory concentration of a number of a number of compounds of this invention with respect to the microorganism S. Mutans, Strain OMZ-176E were determined by the procedure described above. Chlorhexidine diacetate, a commercially successful antimicrobial, was used as a control.” for “(MIC).”

[7] = Staining of extracted human incisors in vitro; conditions: ten days; for discoloration of teeth: 0.2% and 1% solutions, 10 minutes daily, saliva at 37° C
Experimental: The staining properties of the compound of Example II were compared with those of chlorhexidine by the following procedure. Test solutions were prepared containing 0.2% and 1% of chlorhexidine and 0.2% and 1% of the compound of Example II as the trimethanesulfonate salt. Extracted human incisors, which were used without cleaning or other treatment which would remove the dental pellicle, were suspended from wires. Daily, each tooth was immersed for 10 minutes in one of the test solutions, then suspended in whole stimulated saliva and incubated at 37° C for 24 hours.

[8] = cited from earlier work; for taste perception of foodstuffs: for several hours; for clinical antiplaque effectiveness: in vivo; for local irritation: oral mucosa and tongue; for staining of teeth, tongue, gums, oral mucosa: prolonged use

Row | Structure (SMILES) | MIC [1] [µg/mL] | MIC [2] [µg/mL] | MIC [3] [µg/mL] | MIC [4] [µg/mL] | MIC [5] [µg/mL] | MIC [6] [µg/mL] | other results
1 | N=C(NCCCN1CCN(CCCNC(=N)NC(=O)NCC2CCCCCC2)CC1)NC(=O)NCC1CCCCCC1 [1,4-bis[3-(cycloheptylmethylcarbamylguanidino)propyl]piperazine dimethanesulfonic acid salt] | 50 | 12.5 | 0.78 | 12.5 | 0.78 | – | –
2 | CCCCC(CC)CNC(=O)NC(=N)NCCCN1CCN(CCCNC(=N)NC(=O)NCC(CC)CCCC)CC1 (stereo not shown) [1,4-bis[3-(2-ethylhexylcarbamylguanidino)propyl]piperazine dihydrochloride] | – | – | – | – | – | 5 | –
3 | Cl.Cl.N=C(NCCCN1CCN(CCCNC(=N)NC(=O)NCC2CCCCC2)CC1)NC(=O)NCC1CCCCC1 [1,4-bis[(3-cyclohexylmethylcarbamylguanidino)propyl]piperazine dihydrochloride] | – | – | – | – | – | 1.25 | –
4 | CCCCCC(C)NC(=O)NC(=N)NCCCN1CCN(CCCNC(=N)NC(=O)NC(C)CCCCC)CC1 (stereo not shown) [1,4-bis[3-(1-methylhexyl)carbamylguanidino)propyl]piperazine dihydrochloride] | 25 | 12.5 | 1.56 | 25 | 6.25 | – | –
5 | N=C(NCCN1CCN(CCNC(=N)NC(=O)NC23CC4CC(CC(C4)C2)C3)CC1)NC(=O)NC12CC3CC(CC(C3)C1)C2 [1,4-bis[2-((1-adamantyl)carbamylguanidino)ethyl]piperazine dimethanesulfonic acid salt] | 50 | 12.5 | 0.39 | 6.25 | 0.78 | – | –
6 | CN(CCNC(=N)NC(=O)Nc1ccc(Cl)cc1)CCN(C)CCNC(=N)NC(=O)Nc1ccc(Cl)cc1 [1,8-bis(4-chlorophenylcarbamylguanidino)-3,6-dimethyl-3,6-diazaoctane] | – | – | – | – | – | 1.25 (≈ 2.21 µM) | –
7 | N=C(NCCCCCCNC(=N)NC(=N)Nc1ccc(Cl)cc1)NC(=N)Nc1ccc(Cl)cc1 [chlorhexidine diacetate, reference compound] | – | – | – | – | – | 0.156 to 0.312 | –
8 | [H]/N=C(\N/C(=N/[H])NCCCCCCNC(=N)NC(=N)Nc1ccc(Cl)cc1)Nc1ccc(Cl)cc1 [chlorhexidine, 1,6-bis-(p-chlorophenylbiguanidino)hexane] | 12.5 (≈ 24.7 µM) | 1.56 (≈ 3.09 µM) | 0.39 (≈ 0.772 µM) | 50 (≈ 98.9 µM) | 3.12 (≈ 6.17 µM) | – | discoloration of teeth [7]: greyish-brown discoloration; dependence of amount of discoloration on concentration ([7]; 0.2% versus 1%): independent of the concentration; taste perception of foodstuffs [8]: alter taste perception of foodstuffs for several hours; clinical antiplaque effectiveness [8]: clinically effective antiplaque agents; local irritation [8]: produce local irritation of the oral mucosa and tongue; staining of teeth, tongue, gums, oral mucosa [8]: produce stains of various colors on the teeth, tongue, gums, oral mucosa; also recorded: staining of the teeth, tongue, and gums
9 | N=C(NCCCN1CCN(CCCNC(=N)NC(=O)NC23CC4CC(CC(C4)C2)C3)CC1)NC(=O)NC12CC3CC(CC(C3)C1)C2 [1,4-bis[3-((1-adamantyl)carbamylguanidino)propyl]piperazine dimethanesulfonic acid salt] | 12.5 | 25 | 6.25 | 50 | 12.5 | – | –
10 | N=C(NCCCN1CCN(CCCNC(=N)NC(=O)NC2CCCCC2)CC1)NC(=O)NC1CCCCC1 [1,4-bis[3-(cyclohexylcarbamylguanidino)propyl]piperazine dimethanesulfonic acid salt] | 100 | 100 | 50 | 100 | 50 | – | –
11 | CN(CCCNC(=N)NC(=O)Nc1ccc(Cl)cc1)CCCNC(=N)NC(=O)Nc1ccc(Cl)cc1 [1,7-bis(4-chlorophenylcarbamylguanidine)-4-methyl-4-azaheptane] | – | – | – | – | – | 0.625 (≈ 1.17 µM) | –
12 | CCCCC(CC)CNC(=N)NC(=N)NCCCCCCNC(=N)NC(=N)NCC(CC)CCCC (stereo not shown) [alexidine, 1,6-bis-(2-ethylhexylbiguanidino)hexane] | – | – | – | – | – | – | taste perception of foodstuffs [8]: alter taste perception of foodstuffs for several hours; clinical antiplaque effectiveness [8]: clinically effective antiplaque agents; local irritation [8]: produce local irritation of the oral mucosa and tongue; staining of teeth, tongue, gums, oral mucosa [8]: produce stains of various colors on the teeth, tongue, gums, oral mucosa
13 | CC(C)(C)CC(C)(C)NC(=O)NC(=N)NCCCN1CCN(CCCNC(=N)NC(=O)NC(C)(C)CC(C)(C)C)CC1 [1,4-bis[3-(1,1,3,3-tetramethylbutylcarbamylguanidino)propyl]piperazine dihydrochloride] | – | – | – | – | – | 1.25 | –
14 | N=C(NCCCN1CCN(CCCNC(=N)NC(=O)NCC2CCCCC2)CC1)NC(=O)NCC1CCCCC1 [1,4-bis[3-(cyclohexylmethylcarbamylguanidino)propyl]piperazine dimethanesulfonic acid salt] | 12.5 | 6.25 | 0.78 | 100 | 6.25 | – | –
15 | N=C(NCCCN1CCN(CCCNC(=N)NC(=O)Nc2ccc(Cl)cc2)CC1)NC(=O)Nc1ccc(Cl)cc1 [Example II] | – | – | – | – | – | 0.156 to 0.312 (≈ 0.264 to 0.527 µM) | discoloration of teeth [7]: no signs of discoloration
16 | N=C(NCCCN1CCN(CCCNC(=N)NC(=O)NCCc2ccc(Cl)cc2)CC1)NC(=O)NCCc1ccc(Cl)cc1 [1,4-bis[3-(2-(4-chlorophenyl)ethylcarbamylguanidino)propyl]piperazine dihydrochloride] | – | – | – | – | – | 1.25 | –
17 | CCCCCCCCNC(=O)NC(=N)NCCCN1CCN(CCCNC(=N)NC(=O)NCCCCCCCC)CC1 [1,4-bis[3-(n-octylcarbamylguanidino)propyl]piperazine dihydrochloride] | – | – | – | – | – | 2.5 | –
